Legend:
[1] = tested on: neural progenitor cells (NPCs); test: Neuronal differentiation of GFP-expressing NPCs co-cultured with differently activated microglia; type: cell-based, mouse; conditions: absence of microglia, insulin 0.02 mg/ml
Description: (iii) Neural progenitor cell (NPC) culture. Coronal sections (2 mm thick) of tissue containing the subventricular zone of the lateral ventricle were obtained from the brains of adult C57B16/J mice. […] After centrifugation at 110×g for 15 min at room temperature, the tissue was mechanically dissociated by pipette trituration. […] Cell proliferation rates and cell survival in vitro were determined by staining with 5-bromo-2′-deoxyuridine (BrdU, 2.5 μM; Sigma-Aldrich, St. Louis). For quantification of live and dead cells, live cultures were stained with 1 μg/ml propidium iodide (Molecular Probes, Invitrogen, Carlsbad, Calif.) and 1 μg/ml Hoechst 33342 (Sigma-Aldrich, St. Louis), and cells were counted using Image-Pro (Media Cybernetics, Silver Spring, Md.), as described (Hsieh et al., 2004) (vi) Immunocytochemistry. […]

[2] = tested on: neural progenitor cells (NPCs); test: Oligodendrocyte differentiation (NG2, RIP, GalC) of NPCs co-cultured with activated microglia; type: cell-based, mouse; conditions: 5 days, presence of insulin
Description: (iii) Neural progenitor cell (NPC) culture. Coronal sections (2 mm thick) of tissue containing the subventricular zone of the lateral ventricle were obtained from the brains of adult C57B16/J mice. The tissue was minced and then incubated for digestion at 37° C., 5% CO2 for 45 min in Earle's balanced salt solution containing 0.94 mg/ml papain (Worthington, Lakewood, N.J.) and 0.18 mg/ml of L-cysteine and EDTA. After centrifugation at 110×g for 15 min at room temperature, the tissue was mechanically dissociated by pipette trituration. Cells obtained from single-cell suspensions were plated (3500 cells/cm^2) in 75-cm^2 Falcon tissue-culture flasks (BD Biosciences, Franklin Lakes, N.J.), in NPC-culturing medium [Dulbecco's modified Eagles's medium (DMEM)/F12 medium (Gibco/Invitrogen, Carlsbad, Calif.) containing 2 mM L-glutamine, 0.6% glucose, 9.6 μg/ml putrescine, 6.3 ng/ml progesterone, 5.2 ng/ml sodium selenite, 0.02 mg/ml insulin, 0.1 mg/ml transferrin, 2 μg/ml heparin (all from Sigma-Aldrich, Rehovot, Israel), fibroblast growth factor-2 (human recombinant, 20 ng/ml), and epidermal growth factor (human recombinant, 20 ng/ml; both from Peprotech, Rocky Hill, N.J.)]. Spheres were passaged every 4-6 days and replated as single cells. Green fluorescent protein (GFP)-expressing neural progenitor cells (NPCs) were obtained as previously described (Pluchino et al., 2003). […]

insulin: insulin added to differentiation medium (0.02 mg/ml)
numbers of GFP+/β-III-tubulin+ cells in NPC cultures [1]: did not increase
NG2+ cells [2]: did not affect the incidence of NG2^+ cells
